{"source": "patent US7786257B2", "about": "“Signal-1/signal-2 bifunctional peptide inhibitors” (priority 2000, dated 2010)", "key": {"T-cells from NOD mice": {"test_system": "T-cells from NOD mice", "assay": "ELISPOT of IL-4 and IFN-γ release by T-cells from treated NOD mice (TH1/TH2 frequency)", "type": "in vivo, mouse", "excerpt": "Groups of 3-5 NOD mice were immunized subcutaneously (s.c.) with the GAD 65 peptide in CFA (40 nanomoles/mouse) at the tail base. Different groups received either the EGAD-BPI, its single TCR epitope (Signal-1 moiety), or its CD11a peptide (Signal-2 moiety) i.v. (all 40 nanomoles/mouse). After 6-8 days, another identical 40 nanomole injection was given to each mouse, and the next day lymph nodes draining the site of the s.c. injection were made into single cell suspensions for culture. Identical primary cultures were incubated for 96 hours; then, viable T-cells were recovered by density gradient centrifugation. One million of these cells were combined in nitrocellulose-bottomed 96-well plates (Millititer-HA, Millipore, Bedford, Mass.), previously coated (50 μl/well) with mAb to either mouse IFNγ (clone R4-6A2), or mouse IL-4 (clone BVD4-1D11) at a concentration of 10 μg/ml in PBS. Groups of triplicate cultures were incubated with either Concanavalin-A (2 μg/ml), or the Signal-1 peptide moiety plus 20 U/ml recombinant IL2 (R & D Systems). After 72-96 hours of culture at 37° C. and 5% CO2, plates were washed three times with PBS-0.05% Tween-20. In appropriate wells are added biotinylated anti-IFNγ (clone XMG1.2) or biotinylated anti-IL-4 (clone BVD6-24G2) at a concentration of 1 μg/ml and incubated for 1 hour at room temperature. Positive control wells receive known TH1 or TH2 clones in place of normal T-cells. MAb pairs to IL12, IL10, and IL2 are also available and will be used to test for these cytokines in the same assay. All mAb and recombinant controls are purchased from PharMingen (San Diego, Calif.). Finally, plates were washed three times with PBS-Tween, and then exposed to 100 μl of a 1:2000 dilution of streptavidin alkaline phosphatase (Jackson ImmunoResearch, West Grove, Pa.) for 1 h and washed as before. […]"}, "NOD mice": {"test_system": "NOD mice", "assay": "Lymphocytic infiltration of pancreatic islets (insulitis) in NOD mice, histological scoring", "type": "in vivo, mouse", "excerpt": "To evaluate the disease process by immunohistology (see, e.g., FIG. 12A-D), spleen, pancreas, or other target organs, e.g., the CNS for the MDP peptide BPI, or lung for the RSV peptide BPI, were removed from euthanized mice of each group and prepared for histology by fixing in neutral buffered formalin and embedding in paraffin, or snap frozen in O.C.T. medium. For scoring inflammation, minimums of five sections from each mouse were used to assess the blocking affect of a given BPI. For characterization of standard T-cell markers on cellular infiltrates, biotinylated mAb to various cell surface antigens will be incubated individually with the Cryostat sections (2 hours), followed by avidin-alkaline phosphatase (Vector laboratories). Alternatively, cell subsets will be phenotyped by standard flow cytometry methods as described in Murray et al., 24 Eur. J. Immunol. 2337-2344 (1994); Murray; 19 Immunology Today 157-163; and Schountz et al., 157 The Journal of Immunology 3893-3901 (1996). Finally, the students t-test or ANOVA will be used to estimate the statistical significance of differences observed between groups and individual mice.\nThese studies sought to confirm that the BPI containing the immunodominant GAD65 TCR epitope (EGAD-BPI) was biologically active in vivo and inhibited the development of pancreatic inflammation. Groups of three normal glycemic NOD males (8 weeks old) were immunized with the GAD65 (208-217) peptide in CFA as described in Example 4. The control group received PBS, and separate experimental groups received either the EGAD-BPI, the GAD peptide alone (i.e., the T-cell receptor epitope), or the CD11a peptide alone(i.e., the second signal receptor moiety) by two intravenous injections as described in Example 4. On day 10, the pancreata were removed to 10% PBS-buffered formalin, embedded in paraffin, and five-micron serial sections were examined histologically for mononuclear cell infiltration as previously described by Yoon, et al., Control of Autoimmune Diabetes in NOD Mice by GAD Expression or Suppression in β Cells, 284 Science 1183-1187 (1999), the entirety of which is hereby incorporated by reference."}}, "note": "“Also recorded” adds a separate entry of the source. Where no end group is shown, it is not given here. [ ]: non-standard residue; d: D form. Ahx = NCCCCCC(=O)O"}
{"substance": "GAD65(208-217)-[Ac-G-Ac-G-Ac]-CD11a (237-247) (EIAPVFVLLE[Ahx]G[Ahx]G[Ahx]ITDGEATDSG) [EGAD-BPI]", "values": [{"measurement": "IFN-γ production", "setting": "T-cells from NOD mice; T-cells from treated animals stimulated in vitro with mitogen", "value": "also increased, although to a lesser extent"}, {"measurement": "IL-4 production increase", "setting": "T-cells from NOD mice; T-cells from treated animals stimulated in vitro with mitogen, versus saline control, 40 nanomoles/mouse i.v. twice", "value": "approximately 10 fold"}, {"measurement": "IL-4 production", "setting": "T-cells from NOD mice; treated NOD mice versus control mice", "value": "abundant IL-4"}, {"measurement": "intact / normal islets without infiltration (grade-0 islets), percentage of islets examined", "setting": "NOD mice; NOD males, GAD65 peptide in CFA, two i.v. injections of 40 nanomoles, day 10", "value": "Over 95%"}, {"measurement": "mononuclear cell infiltration of islets (insulitis), in words", "setting": "NOD mice; NOD males, day 10, histology", "value": "clear inhibitory effect; also recorded: predominately intact"}, {"measurement": "inhibition of insulitis", "setting": "NOD mice; compared to the PBS control, calculated from % islets at grade 1-4", "value": 84, "unit": "%"}]}
